Experimental findings from patent publication US8980848B2, “Flavonoid dimers and their use” (The Hong Kong Polytechnic University, priority 2010, dated 2015) are described below.

Where only a bound is given, the exact number is not on record here.

Data set [1] is described as follows: Cytotoxicity over LCC6, LCC6MDR and L929 cell lines. The data set is classed as cell-based, human, mouse. The note with it: human, mouse, LCC6MDR and L929 cell lines; cancer lines LCC6, LCC6MDR and/or L929. The protocol:
(b) Tumor Cell Line Cytotoxicity. The tumor cytotoxicity assays of flavonoid dimers were performed against LCC6, LCC6MDR and L929 cell lines. The cells were grown in supplemented DMEM media in an atmosphere of 95% air and 5% CO2 at 37° C. In brief, LCC6, LCC6MDR and L929 cells were seeded into 96-well flat bottom microtiter plate at 1×10^4 cells per well in a final volume of 100 μL media, respectively. A graded dose of flavonoid dimers was added into wells. The plate was incubated at 37° C. for 72 hrs at the atmosphere 5% CO2 in the air. The % of survivors was determined.

Data set [2] in a line: Tumor cell line cytotoxicity of flavonoid dimers, LCC6. The data set is classed as cell-based, human. The note with it: human, LCC6 cells, IC50 of compound alone. The essentials: (§1)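 LCC6, LCC6MDR and L929 cells seeded at 1×10^4 cells/well and exposed to graded doses of flavonoid dimers. Incubation 72 hrs at 37° C., 5% CO2. Read-out: % survivors.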
For data set [3], the target named is T1, Pgp (LCC6MDR cells) (Homo sapiens, UniProt P08183). Kind of data set: Doxorubicin accumulation in LCC6MDR cells.
T1 sequence (P08183 whole entry): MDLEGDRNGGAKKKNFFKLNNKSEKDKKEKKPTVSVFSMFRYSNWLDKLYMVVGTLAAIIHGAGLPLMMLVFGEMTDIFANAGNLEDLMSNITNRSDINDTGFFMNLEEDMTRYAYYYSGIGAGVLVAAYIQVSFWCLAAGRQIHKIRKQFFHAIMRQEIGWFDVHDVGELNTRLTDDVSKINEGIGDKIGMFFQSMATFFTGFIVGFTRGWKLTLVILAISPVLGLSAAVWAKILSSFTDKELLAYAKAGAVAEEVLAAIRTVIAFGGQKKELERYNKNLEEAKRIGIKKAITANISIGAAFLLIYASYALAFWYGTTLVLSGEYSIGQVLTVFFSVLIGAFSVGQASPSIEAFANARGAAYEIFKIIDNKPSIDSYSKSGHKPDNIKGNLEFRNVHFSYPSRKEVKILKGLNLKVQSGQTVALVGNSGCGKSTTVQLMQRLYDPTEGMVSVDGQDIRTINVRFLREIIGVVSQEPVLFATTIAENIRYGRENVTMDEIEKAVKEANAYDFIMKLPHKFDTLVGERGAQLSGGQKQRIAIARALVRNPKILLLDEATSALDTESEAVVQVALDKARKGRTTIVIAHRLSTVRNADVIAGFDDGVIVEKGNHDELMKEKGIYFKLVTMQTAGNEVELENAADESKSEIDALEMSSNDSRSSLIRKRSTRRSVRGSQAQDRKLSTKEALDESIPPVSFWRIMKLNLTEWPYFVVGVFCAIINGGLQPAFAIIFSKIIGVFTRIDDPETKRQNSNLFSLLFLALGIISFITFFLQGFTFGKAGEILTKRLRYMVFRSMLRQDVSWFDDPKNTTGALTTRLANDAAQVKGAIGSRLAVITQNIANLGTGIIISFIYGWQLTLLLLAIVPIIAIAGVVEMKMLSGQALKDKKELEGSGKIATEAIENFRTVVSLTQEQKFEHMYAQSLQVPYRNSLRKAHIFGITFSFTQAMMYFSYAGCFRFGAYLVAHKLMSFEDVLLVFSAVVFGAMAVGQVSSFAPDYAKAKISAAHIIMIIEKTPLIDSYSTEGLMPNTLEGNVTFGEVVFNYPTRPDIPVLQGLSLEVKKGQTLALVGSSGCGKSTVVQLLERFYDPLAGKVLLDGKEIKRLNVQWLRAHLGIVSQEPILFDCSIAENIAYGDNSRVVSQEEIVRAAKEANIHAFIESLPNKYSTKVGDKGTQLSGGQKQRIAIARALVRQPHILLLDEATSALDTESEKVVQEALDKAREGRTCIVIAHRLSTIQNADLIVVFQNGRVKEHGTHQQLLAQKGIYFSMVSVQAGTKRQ
Data set [4] in a line: Cytotoxicity of flavonoid dimers, L929 mouse fibroblast. The data set is classed as cell-based. As to conditions: mouse, L929 fibroblast cells, IC50 of compound alone, 72 hrs, mouse fibroblast. An outline of the steps:
as §1

In data set [5] the test system is LCC6 cells. The data set is described as follows: Doxorubicin influx in LCC6 cells. The format is cell-based, human. The note with it: after 75 min. The protocol: (§2) Influx and Efflux Studies. […] 0.15% of DMSO acted as a negative control. The cells were harvested after 0, 15, 30, 45, 75 min for determining the intracellular Doxorubycin concentration as described previously. […] The cells were then washed and further incubated in the presence or absence of compound 18 (1 or 3 μM). At 0, 15, 30, 60, 90, 120, 150 and 180 min, the cells were harvested for measuring the intracellular Doxorubycin concentration.
(§3) Effect of Compound 18 on Doxorubicin Influx and Efflux of MDA435/LCC6MDR Cells. Experiments were performed to determine whether the increased accumulation of doxorubicin in LCC6MDR cells caused by 18 is due to potentiation of doxorubicin influx or inhibition of efflux.

In data set [6] the test system is Raw264.7 cells. Kind of data set: Cytotoxicity, mouse macrophage Raw264.7. The data set is classed as cell-based. As to conditions: Mus musculus, RAW264.7, 72 h. The essentials:
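Raw264.7 (1×10^4 cells/well) and primary PEM cells (2×10^4 cells/well) in supplemented DMEM received graded compound doses and were incubated 72 h at 37 °C, 5% CO2. Percent survivors determined; cytotoxicity IC50 used for therapeutic index against antileishmanial IC50.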

The target in data set [7] is T1, Pgp (LCC6MDR cells). The data set is described as follows: Cell proliferation assay: Pgp-modulating activity, reversal of anticancer drug resistance in LCC6MDR cells. The note with it: for EC50: EC50 of compounds for reversing anticancer drug resistance (nM), LCC6MDR.
For data set [8], the system named is LCC6MDR cells. The data set is described as follows: Doxorubicin influx in LCC6MDR cells. The data set is classed as cell-based, human. The note with it: for Intracellular doxorubicin level, influx: LCC6MDR, after 75 min. The protocol: as §2, §3
Data set [9] has as its system LCC6 cells. The data set is described as follows: Doxorubicin accumulation in LCC6 cells. The data set is classed as cell-based, human. As to conditions: 1 μM. The text has this:
Doxorubycin accumulation. […] […].

Data set [10] in a line: Tumor cell line cytotoxicity of flavonoid dimers, LCC6MDR. The data set is classed as cell-based, human. The note with it: human, LCC6MDR cells, IC50 of compound alone. The essentials:
as §1

Data set [11] concerns LCC6 cells. Kind of data set: Doxorubicin efflux in LCC6 cells. As to conditions: after 3 hrs. The data set is classed as cell-based, human. The procedure:
as §2
In the efflux experiments, both LCC6 and LCC6MDR were first pre-loaded with doxorubicin for 2 hrs, washed and the remaining doxorubicin was measured after 0, 15, 30, 60, 90, 120, 150 and 180 min. […] Thus efflux rate of LCC6MDR is higher than LCC6. At 1DM or 3 μM of 18, the doxorubicin efflux rate was unaltered in the wild type LCC6 cells. After 3 hrs, the intracellular doxorubicin levels of LCC cells at 1 μM (3122 FU, 71% of doxorubicin remained) and 3 μM (3103 FU, 71% of doxorubicin remained) were very close to that at 0 μM (2601 FU, 60% of doxorubicin remained), respectively (FIG. 3A).

Data set [12] has as its system Ld39 promastigotes (SSG-resistant). Kind of data set: In vitro anti-promastigote activity, Ld39. The format is cell-based, Leishmania donovani. The note with it: Leishmania donovani, 72 h, read-out: Anti-promastigotes activity (IC50, μM) Ld39. The essentials: (§4)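 L. donovani (LdAG83 wild type, SSG-resistant Ld39) and L. major Lm50122 promastigotes were seeded at 1×10^5 per well with a concentration series of compound.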

The test system of data set [13] is LdAG83 promastigotes (wild type). Kind of data set: In vitro anti-promastigote activity, LdAG83. The data set is classed as cell-based, Leishmania donovani. The note with it: Leishmania donovani, 72 h, read-out: Anti-promastigotes activity (IC50, μM) LdAG83. An outline of the steps:
as §4

The subject of data set [14] is LCC6 cells. The data set is described as follows: Cell proliferation assay: paclitaxel on parental LCC6 cells without modulator. The format is cell-based. As to conditions: Homo sapiens, LCC-6, no modulator, read-out: IC50 of paclitaxel of LCC6 in the absence of modulators. An excerpt:
Cell Proliferation Assay.

As usually defined, the IC50 is the concentration that gives 50% inhibition. One may read the EC50 as the midpoint of the concentration-response curve.

On to `O=c1cc(-c2ccc(OCCOCCN(CCOCCOc3ccc(-c4cc(=O)c5ccccc5o4)cc3)Cc3ccccc3)cc2)oc2ccccc12` [Compound 18, 1,13-Bis[4′-(4H-chromen-4-on-2-yl)phenyl]-N-(benzyl)-1,4,10,13-tetraoxa-7-azamidecane], for which the IC50 at 72 h in [1] is greater than 63000 nM; in [2], greater than 75 µM; in data set [4], 85 µM; in [10], greater than 63 µM. Further, in data set [3], the “Fold more active than verapamil in inhibiting doxorubicin transport activity of Pgp” value is on record as “roughly 16 fold”. Moreover, the “Concentration to restore doxorubicin accumulation in LCC6MDR to levels of parental LCC6” value in data set [3] (LCC6MDR) worked out at 500 nM. Besides, the “Intracellular doxorubicin level, influx” value in data set [5] (LCC6, 1 μM) was 0-1320 FU; in [5] (LCC6, 3 μM), 0-1035 FU; in [8] (1 μM), 0-803 FU; in data set [8] (3 μM), 0-909 FU. The IC50 in data set [6] was greater than 79000 nM; in data set [12], 12.3 ± 6 µM; in data set [13] it was 8.4 ± 6.1 µM. For the same molecule, the EC50 in [7] (Daunorubicin) amounted to 95 ± 25 nM; in data set [7] (Doxorubicin), 131 ± 13 nM; in [7] (Mitoxantrone), 90 ± 20 nM; in [7] (Paclitaxel), 148 ± 18 nM; in data set [7] (Vinblasinte, vinblastine) it was 173 ± 27 nM; in data set [7] (Vincristine), 179 ± 32 nM. In addition, the Therapeutic index in data set [7] (IC50 of compounds for L929/EC50 of compounds for lowering paclitaxel drug resistance) came to 574.3. Also, the “Effect on doxorubicin influx” value in [8] (1 or 3 μM, LCC6 and LCC6MDR) is listed as “no effect on doxorubicin influx”. For the same molecule, in data set [9], the “Effect on intracellular doxorubicin accumulation in parental LCC6” value is reported as “does not increase”. The Doxorubicin remained in data set [11] (LCC6, 1 μM) is reported as 71%; in data set [11] (LCC6, 3 μM) it was 71%. For the same molecule, the “Intracellular doxorubicin level, efflux” value in [11] (LCC6, 1 μM) was 3122 FU; in data set [11] (LCC6, 3 μM), 3103 FU.

Regarding `CC(=O)O[C@H]1C(=O)[C@@]2(C)[C@H]([C@H](OC(=O)c3ccccc3)[C@]3(O)C[C@H](OC(=O)[C@H](O)[C@@H](NC(=O)c4ccccc4)c4ccccc4)C(C)=C1C3(C)C)[C@]1(OC(C)=O)CO[C@@H]1C[C@@H]2O` [paclitaxel], the IC50 in data set [14] amounted to 1.6 ± 0.3 nM.

Regarding `COc1ccc(CCN(C)CCCC(C#N)(c2ccc(OC)c(OC)c2)C(C)C)cc1OC` (stereo not shown) [Verapamil, verapamil, reference compound], the “Effect on intracellular doxorubicin accumulation in parental LCC6” value in [9] is “does not increase”.
